Patent US4055639A, “Derivatives of N-(2,2-dichlorovinyl) salicylamide and use thereof as bactericides, fungicides and algicides for industry” (Nippon Kayaku Kabushiki Kaisha, priority 1975, dated 1977)
≈ marks a conversion by molar mass, not a printed value. Where a name gives a salt, the structure may show the parent alone. Read-outs that look alike come from different tables or passages of the source.

Key:
green algae = test: degree of propagation on slime test boards in Waxman's liquid medium; parameters: key: -: no propagation; +: the area of propagation is 1-25% on the slime test boards.; ++: the area of propagation is 26-50% on the slime test boards.; +++: the area of propagation is 51-75% on the slime test boards.; ++++: the area of propagation is 76-100% on the slime test boards; details: 0.02 part active compound (10% water soluble concentrate) in 100 parts medium, same method
Experimental: (§1) Zero point zero two (0.02) part of active compounds in the form of 10% water soluble concentrate which was prepared by Example 11 was added into 100 parts of Waxman's liquid medium. Pieces of wood and iron (hereafter referred to as the slime test boards) were soaked into the Waxman's liquid medium. The bacteria which were gathered from circular water system were inoculated upon the Waxman's liquid medim and incubated at 27°-34° C by shaking culture for 2 days. The degree of propagation of the bacteria on the slime test boards was examined.
(§2) The growth-inhibiting activity of active compounds against the fungi and the green algae was also examined by the same method as mentioned above.
(§3) The degree of propagation of the bacteria, fungi or green algae on the slime test boards is difined in term of the following symbols.

fungi = test: as above; parameters: key: -: no propagation; +: the area of propagation is 1-25% on the slime test boards.; ++: the area of propagation is 26-50% on the slime test boards.; +++: the area of propagation is 51-75% on the slime test boards.; ++++: the area of propagation is 76-100% on the slime test boards; details: 0.02 part active compound (10% water soluble concentrate) in 100 parts medium, same method
Experimental: as §1, §2, §3

Cladosporium harbarum = test: minimum inhibitory concentration, potato-dextrose agar dilution method; format: cell-based; details: read-out: Minimum inhibitory amount (minimum inhibitory concentration, 100% control)
Text: (§4) Bactericidal activity and fungicidal activity of the active compounds of the present invention were examined by potato-dextrose agar dilution method, or [2] glucose bouillon medium dilution method. The results are shown in Table 2 below as the minimum inhibitory concentration (the minimum concentration of active compound found to produce 100% control of the test bacteria and fungi).

Penicillium citrinum = test: as above; format: cell-based; details: read-out: Minimum inhibitory amount (minimum inhibitory concentration, 100% control)
Text: as §4

Aspergillus niger = test: as above; format: cell-based; details: read-out: Minimum inhibitory amount (minimum inhibitory concentration, 100% control)
Text: as §4

Escherichia coli = test: minimum inhibitory concentration, glucose bouillon medium dilution method; format: cell-based; details: read-out: Minimum inhibitory amount (minimum inhibitory concentration, 100% control)
Text: as §4

Staphylococcus aureus = test: as above; format: cell-based; details: read-out: Minimum inhibitory amount (minimum inhibitory concentration, 100% control)
Text: as §4

Bacillus subtilis = test: as above; format: cell-based; details: read-out: Minimum inhibitory amount (minimum inhibitory concentration, 100% control)
Text: as §4

[1] = tested on: Bacteria, fungi and slime; test: inhibition of bacteria, fungi and slime by water soluble concentrate in circular water systems, pastes or binding agents; details: 10-20 ppm in circular water systems; 0.01-0.1% in pastes or binding agents
Experimental: A water soluble concentrate was prepared as follows:
The above ingredients were mixed. A water soluble concentrate was obtained. A water soluble concentrate containing Compound No. 1, No. 2, No. 5, No. 8, No. 16, No. 19 or No. 22 was prepared by the same method as mentioned above.
Before application, the concentrate was diluted 500-1000 times with water and sprayed on the inside of cotes to prevent the growth of bacteria and fungi.
The solution was added to water in circular water systems to inhibit the growth of slime. The concentration of Compound No. 6 in the water was 10-20 ppm.
An amount of 0.01-0.1% of Compound No. 6 as the solution was added to pastes or binding agents to prevent rottenness of them.

[2] = Cladosporium harbarum, Method (1) potato-dextrose agar dilution
[3] = Method (1) potato-dextrose agar dilution
[4] = Method (2) glucose bouillon medium dilution

Row | SMILES | Degree of propagation (green algae) | Degree of propagation (fungi) | MIC (Cladosporium harbarum; [2]) [µg/mL] | MIC (Penicillium citrinum; [3]) [µg/mL] | MIC (Aspergillus niger; [3]) [µg/mL] | MIC (Escherichia coli; [4]) [µg/mL] | MIC (Staphylococcus aureus; [4]) [µg/mL] | MIC (Bacillus subtilis; [4]) [µg/mL] | MIC (Cladosporium harbarum; Cladosporium) [µg/mL] | MIC (Penicillium citrinum) [µg/mL] | MIC (Aspergillus niger) [µg/mL] | MIC (Escherichia coli) [µg/mL] | MIC (Staphylococcus aureus) [µg/mL] | MIC (Bacillus subtilis) [µg/mL] | inhibition of bacteria, fungi and slime [1]
1 | CCC(=O)Oc1ccccc1C(=O)NC=C(Cl)Cl [Compound No. 15] | - | - | 5 (≈ 17.4 µM) | 10 (≈ 34.7 µM) | 10 (≈ 34.7 µM) | 40 (≈ 139 µM) | 5 (≈ 17.4 µM) | 2.5 (≈ 8.68 µM) |  |  |  |  |  |  | 
2 | CC(C)C(=O)Oc1ccccc1C(=O)NC=C(Cl)Cl [compound 17] |  |  | 10 (≈ 33.1 µM) | 10 (≈ 33.1 µM) | 10 (≈ 33.1 µM) | 40 (≈ 132 µM) | 5 (≈ 16.5 µM) | 5 (≈ 16.5 µM) |  |  |  |  |  |  | 
3 | COC(=O)Oc1ccccc1C(=O)NC=C(Cl)Cl [Compound No. 3, O-methoxycarbonyl-N-(2,2-dichlorovinyl) salicylamide] |  |  | 10 (≈ 34.5 µM) | 20 (≈ 68.9 µM) | 10 (≈ 34.5 µM) | 60 (≈ 207 µM) | 10 (≈ 34.5 µM) | 10 (≈ 34.5 µM) |  |  |  |  |  |  | 
4 | O=C(CCl)Oc1ccccc1C(=O)NC=C(Cl)Cl [compound 19] | - | - | 5 (≈ 16.2 µM) | 10 (≈ 32.4 µM) | 10 (≈ 32.4 µM) | 40 (≈ 130 µM) | 5 (≈ 16.2 µM) | 5 (≈ 16.2 µM) |  |  |  |  |  |  | 
5 | CCOC(=O)Oc1ccccc1C(=O)NC=C(Cl)Cl [compound 22] |  | + (the area of propagation is 1-25% on the slime test boards.) | 10 (≈ 32.9 µM) | 10 (≈ 32.9 µM) | 10 (≈ 32.9 µM) | 40 (≈ 132 µM) | 2.5 (≈ 8.22 µM) | 5 (≈ 16.4 µM) |  |  |  |  |  |  | 
6 | CCCC(=O)Oc1ccccc1C(=O)NC=C(Cl)Cl [compound 16] |  | - | 5 (≈ 16.5 µM) | 10 (≈ 33.1 µM) | 10 (≈ 33.1 µM) | 60 (≈ 199 µM) | 10 (≈ 33.1 µM) | 5 (≈ 16.5 µM) |  |  |  |  |  |  | 
7 | O=C(NC=C(Cl)Cl)c1ccccc1OC(=O)C(Cl)Cl [compound 20] |  |  | 10 (≈ 29.2 µM) | 10 (≈ 29.2 µM) | 10 (≈ 29.2 µM) | 60 (≈ 175 µM) | 10 (≈ 29.2 µM) | 5 (≈ 14.6 µM) |  |  |  |  |  |  | 
8 | CC(=O)Oc1ccc(Cl)cc1C(=O)NC=C(Cl)Cl [Compound No. 5, O-acetyl-N-(2',2'-dichlorovinyl)-5-chlorosalicylamide] | - | - | 2.5 (≈ 8.1 µM) | 2.5 (≈ 8.1 µM) | 2.5 (≈ 8.1 µM) | 10 (≈ 32.4 µM) | 1.3 (≈ 4.21 µM) | 1.3 (≈ 4.21 µM) |  |  |  |  |  |  | 
9 | COc1ccccc1C(=O)NC=C(Cl)Cl [compound 24] |  |  | 10 (≈ 40.6 µM) | 20 (≈ 81.3 µM) | 20 (≈ 81.3 µM) | 60 (≈ 244 µM) | 10 (≈ 40.6 µM) | 10 (≈ 40.6 µM) |  |  |  |  |  |  | 
10 | O=C(NC=C(Cl)Cl)c1cccc([N+](=O)[O-])c1O [compound 14] |  |  | 10 (≈ 36.1 µM) | 10 (≈ 36.1 µM) | 10 (≈ 36.1 µM) | 60 (≈ 217 µM) | 5 (≈ 18 µM) | 5 (≈ 18 µM) |  |  |  |  |  |  | 
11 | CC(C)COC(=O)Oc1ccccc1C(=O)NC=C(Cl)Cl [compound 23] |  |  | 10 (≈ 30.1 µM) | 10 (≈ 30.1 µM) | 10 (≈ 30.1 µM) | 40 (≈ 120 µM) | 5 (≈ 15.1 µM) | 5 (≈ 15.1 µM) |  |  |  |  |  |  | 
12 | CNC(=O)Oc1ccccc1C(=O)NC=C(Cl)Cl [Compound No. 4, O-(N'-methylcarbamoyl)-N-(2,2-dichlorovinyl) salicylamide] |  |  |  |  |  |  |  |  | 5 (≈ 17.3 µM) | 10 (≈ 34.6 µM) | 20 (≈ 69.2 µM) | 60 (≈ 208 µM) | 10 (≈ 34.6 µM) | 10 (≈ 34.6 µM) | 
13 | CC(=O)Oc1c(Cl)cc(Cl)cc1C(=O)NC=C(Cl)Cl [compound 27] |  |  | 5 (≈ 14.6 µM) | 5 (≈ 14.6 µM) | 10 (≈ 29.2 µM) | 40 (≈ 117 µM) | 2.5 (≈ 7.29 µM) | 2.5 (≈ 7.29 µM) |  |  |  |  |  |  | 
14 | O=C(NC=C(Cl)Cl)c1cc(Cl)ccc1O [Compound No. 6, sodium salt of N-(2',2'-dichlorovinyl)-5-chlorosalicylamide] |  |  |  |  |  |  |  |  |  |  |  |  |  |  | inhibited for a long time
15 | O=C(NC=C(Cl)Cl)c1cc(Cl)cc(Cl)c1O [compound 26] |  |  | 5 (≈ 16.6 µM) | 10 (≈ 33.2 µM) | 10 (≈ 33.2 µM) | 40 (≈ 133 µM) | 5 (≈ 16.6 µM) | 5 (≈ 16.6 µM) |  |  |  |  |  |  | 
16 | O=C(NC=C(Cl)Cl)c1cc(Br)ccc1O [compound 13] |  |  | 10 (≈ 32.2 µM) | 10 (≈ 32.2 µM) | 20 (≈ 64.3 µM) | 60 (≈ 193 µM) | 5 (≈ 16.1 µM) | 5 (≈ 16.1 µM) |  |  |  |  |  |  | 
17 | Cc1cccc(C(=O)NC=C(Cl)Cl)c1O [compound 12] |  |  | 20 (≈ 81.3 µM) | 20 (≈ 81.3 µM) | 20 (≈ 81.3 µM) | 80 (≈ 325 µM) | 10 (≈ 40.6 µM) | 10 (≈ 40.6 µM) |  |  |  |  |  |  | 
18 | CC(=O)Oc1ccccc1C(=O)NC=C(Cl)Cl [Compound No. 2, O-acetyl-N-(2,2-dichlorovinyl) salicylamide] | - | - | 5 (≈ 18.2 µM) | 10 (≈ 36.5 µM) | 10 (≈ 36.5 µM) | 40 (≈ 146 µM) | 5 (≈ 18.2 µM) | 2.5 (≈ 9.12 µM) |  |  |  |  |  |  | 
19 | O=C(NC=C(Cl)Cl)c1cc(Cl)ccc1O [Compound No. 1, N-(2',2'-dichlorovinyl)-5-chlorosalicylamide] | - | - | 5 (≈ 18.8 µM) | 10 (≈ 37.5 µM) | 10 (≈ 37.5 µM) | 60 (≈ 225 µM) | 5 (≈ 18.8 µM) | 5 (≈ 18.8 µM) |  |  |  |  |  |  | 
